Assay results reported in ChEMBL document CHEMBL4002612, “Study of antileishmanial activity of 2-aminobenzoyl amino acid hydrazides and their quinazoline derivatives” (Bioorg Med Chem Lett, 2017).

Experiments:
Mus musculus [1] = experiment: Acute toxicity in mouse assessed as change in spleen texture at 100 mg/kg, ip by microscopic method; format: organism-based; conditions: in vivo
Mus musculus [2] = experiment: Acute toxicity in mouse assessed as mortality up to 100 mg/kg, ip after 7 days; format: organism-based; conditions: in vivo, 168 h
Mus musculus [3] = experiment: Acute toxicity in mouse assessed as change in body weight at 25 to 250 mg/kg/day administered as single dose via oral gavage measured after 3 days; format: organism-based; conditions: in vivo, 72 h
Mus musculus [4] = experiment: Acute toxicity in mouse assessed as mortality at 25 to 250 mg/kg/day administered as single dose via oral gavage measured after 3 days; format: organism-based; conditions: in vivo, 72 h
Mus musculus [5] = experiment: Acute toxicity in mouse assessed as change in liver texture at 100 mg/kg, ip by microscopic method; format: organism-based; conditions: in vivo
Mus musculus [6] = experiment: Acute toxicity in mouse assessed as change in kidney texture at 250 mg/kg/day administered as single dose via oral gavage by microscopic method; format: organism-based; conditions: in vivo
Mus musculus [7] = experiment: Acute toxicity in mouse assessed as change in kidney texture at 100 mg/kg, ip by microscopic method; format: organism-based; conditions: in vivo
Leishmania aethiopica [8] = experiment: Antileishmanial activity against promastigote stage of Leishmania aethiopica assessed as parasite growth inhibition after 24 hrs by Alamar blue assay; format: functional
Mus musculus [9] = experiment: Acute toxicity in mouse assessed as change in spleen texture at 250 mg/kg/day administered as single dose via oral gavage by microscopic method; format: organism-based; conditions: in vivo
Mus musculus [10] = experiment: Acute toxicity in mouse assessed as change in liver texture at 250 mg/kg/day administered as single dose via oral gavage by microscopic method; format: organism-based; conditions: in vivo
Leishmania aethiopica [11] = experiment: Potency index, ratio of mitefosine IC50 to test compound IC50 for promastigote stage of Leishmania aethiopica; format: functional

For `O=C(CNC(=O)c1ccccc1/N=C/c1ccc(Cl)cc1)N/N=C\c1ccc(Cl)cc1`, which Activity (Mus musculus [1]) is on record?
The Activity was “Non-Toxic”.

And the Activity (Mus musculus [2])?
The Activity was “Non-Toxic”.

What about the Activity (Mus musculus [3]) of the same compound?
Its Activity is “Non-Toxic”.

And the Activity (Mus musculus [4])?
Its Activity is “Non-Toxic”.

What about the Activity (Mus musculus [5]) of the same compound?
Its Activity is “Non-Toxic”.

And the Activity (Mus musculus [6])?
The Activity was “Non-Toxic”.

And the Activity (Mus musculus [7])?
The Activity was “Non-Toxic”.

What about the IC50 (Leishmania aethiopica [8]) of the same compound?
Its IC50 is 0.052 µM.

And the Activity (Mus musculus [9])?
The Activity was “Non-Toxic”.

And the Activity (Mus musculus [10])?
The Activity was “Non-Toxic”.

Which IC50 (Leishmania aethiopica [8]) does the source give for `COc1ccc(/C=N/NC(=O)CN2C(=O)c3ccccc3NC2c2ccc(OC)cc2)cc1` (centres undefined) here?
Its IC50 is 9.07 µM.

Which IC50 (Leishmania aethiopica [8]) does the source give for `O=C(N/N=C/c1ccc(Cl)cc1)C(Cc1ccccc1)N1C(=O)c2ccccc2NC1c1ccc(Cl)cc1` (centres undefined) here?
Its IC50 is 10.1 µM.

With `NNC(=O)CNC(=O)c1ccccc1N` as the compound, how does the Activity (Mus musculus [1]) read?
The Activity was “Non-Toxic”.

What about the Activity (Mus musculus [2]) of the same compound?
The Activity was “Non-Toxic”.

What about the Activity (Mus musculus [3]) of the same compound?
The Activity was “Non-Toxic”.

And the Activity (Mus musculus [4])?
Its Activity is “Non-Toxic”.

What about the Activity (Mus musculus [5]) of the same compound?
Its Activity is “Non-Toxic”.

And the Activity (Mus musculus [6])?
Its Activity is “Non-Toxic”.

What about the Activity (Mus musculus [7]) of the same compound?
The Activity was “Non-Toxic”.

What about the IC50 (Leishmania aethiopica [8]) of the same compound?
The IC50 was 0.127 µM.

And the Activity (Mus musculus [9])?
Its Activity is “Non-Toxic”.

What about the Activity (Mus musculus [10]) of the same compound?
Its Activity is “Non-Toxic”.

With `O=C(CCNC(=O)c1ccccc1/N=C/c1ccc(Cl)cc1)N/N=C/c1ccc(Cl)cc1` as the compound, how does the IC50 (Leishmania aethiopica [8]) read?
Its IC50 is 4.34 µM.

How did the IC50 (Leishmania aethiopica [8]) turn out when `O=C(CCCCCN1C(=O)c2ccccc2NC1c1ccc2c(c1)OCO2)N/N=C/c1ccc2c(c1)OCO2` (centres undefined) was run?
The IC50 was 9.33 µM.

For `C[C@@H]1[C@H](O)[C@@H](C)/C=C/C=C/C=C/C=C/C=C/C=C/C=C/[C@H](O[C@@H]2O[C@H](C)[C@@H](O)[C@H](N)[C@@H]2O)C[C@@H]2O[C@](O)(C[C@@H](O)C[C@@H](O)[C@H](O)CC[C@@H](O)C[C@@H](O)CC(=O)O[C@H]1C)C[C@H](O)[C@H]2C(=O)O.C[C@H](CCC(=O)O)[C@H]1CC[C@H]2[C@@H]3CC[C@@H]4C[C@H](O)CC[C@]4(C)[C@H]3C[C@H](O)[C@]12C`, which IC50 (Leishmania aethiopica [8]) is on record?
Its IC50 is 0.035 µM.

`CC(NC(=O)c1ccccc1N)C(=O)NN` (centres undefined) was tested. Which Activity (Mus musculus [1]) did it give?
Its Activity is “Non-Toxic”.

What about the Activity (Mus musculus [2]) of the same compound?
The Activity was “Non-Toxic”.

And the Activity (Mus musculus [3])?
Its Activity is “Non-Toxic”.

And the Activity (Mus musculus [4])?
The Activity was “Non-Toxic”.

What about the Activity (Mus musculus [5]) of the same compound?
Its Activity is “Non-Toxic”.

What about the Activity (Mus musculus [6]) of the same compound?
The Activity was “Non-Toxic”.

What about the Activity (Mus musculus [7]) of the same compound?
Its Activity is “Non-Toxic”.

And the IC50 (Leishmania aethiopica [8])?
Its IC50 is 0.185 µM.

What about the Activity (Mus musculus [9]) of the same compound?
The Activity was “Non-Toxic”.

And the Activity (Mus musculus [10])?
Its Activity is “Non-Toxic”.

`O=C(CN1C(=O)c2ccccc2NC1c1ccc2c(c1)OCO2)N/N=C/c1ccc2c(c1)OCO2` (centres undefined) was tested. Which IC50 (Leishmania aethiopica [8]) did it give?
The IC50 was 12 µM.

For `O=C(CCCN1C(=O)c2ccccc2NC1c1ccco1)N/N=C/c1ccco1` (centres undefined), which IC50 (Leishmania aethiopica [8]) is on record?
The IC50 was 10.4 µM.

How did the IC50 (Leishmania aethiopica [8]) turn out when `O=C(CCCCCN1C(=O)c2ccccc2NC1c1ccco1)N/N=C/c1ccco1` (centres undefined) was run?
Its IC50 is 11.1 µM.

`NNC(=O)CCCCCNC(=O)c1ccccc1N` was tested. Which Activity (Mus musculus [1]) did it give?
Its Activity is “Non-Toxic”.

What about the Activity (Mus musculus [2]) of the same compound?
The Activity was “Non-Toxic”.

And the Activity (Mus musculus [3])?
The Activity was “Non-Toxic”.

And the Activity (Mus musculus [4])?
The Activity was “Non-Toxic”.

And the Activity (Mus musculus [5])?
The Activity was “Non-Toxic”.

What about the Activity (Mus musculus [6]) of the same compound?
The Activity was “Non-Toxic”.

What about the “Ratio IC50” value (Leishmania aethiopica [11]) of the same compound?
The value was 154.

And the Activity (Mus musculus [7])?
Its Activity is “Non-Toxic”.

And the IC50 (Leishmania aethiopica [8])?
The IC50 was 0.051 µM.

And the Activity (Mus musculus [9])?
Its Activity is “Non-Toxic”.

And the Activity (Mus musculus [10])?
Its Activity is “Non-Toxic”.

For `O=C(N/N=C/c1ccco1)C(Cc1ccccc1)N1C(=O)c2ccccc2NC1c1ccco1` (centres undefined), which IC50 (Leishmania aethiopica [8]) is on record?
Its IC50 is 9.05 µM.

Which IC50 (Leishmania aethiopica [8]) does the source give for `O=C(CCN1C(=O)c2ccccc2NC1c1ccccc1)N/N=C/c1ccccc1` (centres undefined) here?
Its IC50 is 12.6 µM.

For `COC(=O)C(C)NC(=O)c1ccccc1N` (centres undefined), which IC50 (Leishmania aethiopica [8]) is on record?
Its IC50 is 23 µM.

For `COC(=O)CNC(=O)c1ccccc1N`, which IC50 (Leishmania aethiopica [8]) is on record?
Its IC50 is 29.2 µM.

With `COC(=O)CCNC(=O)c1ccccc1N` as the compound, how does the IC50 (Leishmania aethiopica [8]) read?
The IC50 was 26.4 µM.

Which IC50 (Leishmania aethiopica [8]) does the source give for `COC(=O)CCCNC(=O)c1ccccc1N` here?
The IC50 was 17.3 µM.

`NNC(=O)C(Cc1ccccc1)NC(=O)c1ccccc1N` (centres undefined) was tested. Which IC50 (Leishmania aethiopica [8]) did it give?
Its IC50 is 2.9 µM.

How did the IC50 (Leishmania aethiopica [8]) turn out when `COC(=O)C(Cc1ccccc1)NC(=O)c1ccccc1N` (centres undefined) was run?
The IC50 was 15.6 µM.

With `COC(=O)CCCCCNC(=O)c1ccccc1N` as the compound, how does the IC50 (Leishmania aethiopica [8]) read?
Its IC50 is 21.3 µM.

Which IC50 (Leishmania aethiopica [8]) does the source give for `CC(C(=O)N/N=C/c1ccco1)N1C(=O)c2ccccc2NC1c1ccco1` (centres undefined) here?
Its IC50 is 10.7 µM.
